# How the values were obtained:
# [1] = system: 5 dpf zebrafish larvae; assay: Gall bladder fluorescence in 5 dpf zebrafish larvae soaked in fluorescent lipids; details: 5 dpf larvae soaked in the lipid
# Protocol: A. Bright-field image of a 5 dpf larva soaked in PED6 (3 μg/ml, 2 hr). B. Corresponding fluorescent image, with intestinal (arrow) and gall bladder (arrowhead) labeling. C. Larva soaked in BODIPY-C5-PC (0.2 μg/ml).
# To determine whether these reagents could be used to study organ specific PLA2 activity, the quenched fluorescent lipids were administered to zebrafish larvae at 5 dpf, a developmental stage when the major larval organ systems function (FIG. 2).
# First, to establish that PED6 is swallowed by the larvae, an unquenched fluorescent lipid was administered to 5 dpf larvae, and the appearance of labeled lipid in the pharynx and intestinal lumen before the gallbladder was noted (FIGS. 3C & 4). […] Dissected adult gall bladders were lysed in embryo medium (EM) (30 μl) containing BODIPY-FL-C5-PC (0.1 μg) to release bile. PLA2 activity was determined as described (1). Measurements were compared with activity of bile-depleted gallbladders. […] Fluorescent images were captured over 1 hr using a Zeiss Axiocam 2 mounted on a Leica MZFL-III.
# [2] = system: mice; assay: Biliary fluorescence in mice given PED6 by gavage; format: in vivo, mouse; details: PED6 1 μg by gavage, t=30 min
# Protocol: FIG. 5. Lipid processing. […] C. Mouse digestive organs. D. Gall bladder fluorescence after processing (t=30 min) of PED6 (1 μg), administered by gavage. Symbols: gb, ball bladder; d, common bile duct; lv, liver. Scale bars, 1.0 mm (C and D), 200 μm (other images).
Molecule,time to gall bladder fluorescence after ingesting the lipid [1],biliary (gall bladder) fluorescence after gavage [2]
"CCCCCCCCCCCCCCCC(=O)OC[C@H](COP(=O)(O)OCCNC(=O)CCCCCNc1ccc([N+](=O)[O-])cc1[N+](=O)[O-])OC(=O)CCCCC1=[N+]2C(=Cc3c(C)cc(C)n3[B-]2(F)F)C=C1 [PED6, N-((6-(2,4-dinitrophenyl)amino)hexanoyl)-1-palmitoyl-2-BODIPY-FL-pentanoyl-sn-glycero-3-phosphoethanolamine]",15 to 20 min,rapid appearance of biliary fluorescence
nitrobenzoxadiazole cholesterol [NDB cholesterol],≤ 30 min,–

# Source: US8124056B2, “High throughput genetic screening of lipid and cholesterol processing using fluorescent compounds” (Trustees of the University of Pennsylvania, priority 2000, dated 2012)
